# Entries after “also recorded” stand apart in the source; their conditions may differ.
# Tested on: patients with PoPH
# Assay: PORTICO: right heart catheterization hemodynamics at rest (PVR, mRAP, mPAP, cardiac index, TPR, SVO2, PAWP/LVEDP)
# Type: in vivo, human
# Method: This study was designed as a randomized, double-blind (DB), placebo-controlled, prospective, multicenter, parallel group Phase 4 study assessing the efficacy and safety of macitentan in PoPH. The study design included an OL period following DB End of Treatment (EOT), the details of which are included below. The study design required approximately 84 adult patients with PoPH to be randomized (1:1) to receive either macitentan 10 mg, or matching placebo, once daily (o.d.) orally. Subject allocation to treatment groups was stratified by background PAH specific therapy receipt (yes/no). Stratification by region of enrollment was also performed as the number of enrolled patients per center was expected to be low, and variation in total patient numbers on a country-to-country level was expected. Based on an attrition rate of 10%, it was expected to have 76 evaluable patients at Week 12/End of Treatment (double-blind) (EOT-DB). Subjects were required to have a confirmed diagnosis of PoPH with a PVR of ≥4 Wood units (WU; ≥320 dyn·s·cm^−5) at enrollment but not have severe hepatic impairment (defined as Child-Pugh Class C or Model for End-Stage Liver Disease (MELD) score ≥19). Subjects were required to have 6-minute walk distance (6MWD) ≥50 m at enrollment but they could belong to any WHO FC. Patients were randomized at 36 sites in seven countries. The core study comprised the following periods:
# The primary efficacy endpoint was: • Relative change from baseline to Week 12 in PVR, expressed as ratio of Week 12 to baseline PVR (Week 12 PVR divided by baseline PVR).
# (i) Hemodynamic measurements—right heart catheterization: Invasive cardiac hemodynamic variables were measured according to the RHC guidelines at Baseline (Visit 1/Screening) and Week 12, or at permanent discontinuation of DB study treatment if prior to Week 12 (at the investigator's discretion). The thermodilution technique was used to measure cardiac output (CO). For each patient, a maximum of two RHC procedures were performed during the study. The following variables were measured: Heart rate (HR), PAWP or LVEDP (if PAWP is not available), mRAP, systolic/diastolic/mean pulmonary arterial pressure (PAP), CO, SVO2. PVR was calculated at Visit 1/Screening. The following hemodynamic variables were calculated for analysis purposes: PVR, TPR, cardiac index.
# The primary efficacy endpoint is: • Relative change from baseline to Week 12 in PVR, expressed as ratio of Week 12 to baseline PVR (Week 12 PVR divided by baseline PVR). • Calculated PVR was used for the efficacy analyses.
# The primary analysis was performed on the FAS and using calculated PVR. PVR was summarized by time point and treatment group using descriptive statistics. Ratio of Week 12 to baseline was summarized using geometric means and coefficients of variation (CVs). The ratio of Week 12 to baseline PVR was log-transformed (base e) and analyzed using ANCOVA with factors for treatment group (macitentan versus placebo), background PAH-specific therapy at baseline (Yes/No as per IXRS, randomization stratification factor), region (Europe/North America/Latin America as per IXRS, randomization stratification factor) and a covariate for baseline log-transformed PVR. The treatment group difference (on log scale) and its 95% confidence interval (2-sided) were estimated based on the model. The geometric mean ratio (macitentan versus placebo) and its 95% confidence interval (2-sided) were obtained by exponentiation. […] The log transformation for PVR is justified by the fact that ratios versus baseline follow a normal distribution more closely after a log transformation. In addition, mean absolute changes from baseline on log scale can be translated into (geometric) mean ratios by exponentiation.
# A sensitivity analysis was performed applying main ANCOVA analysis without the stratification factors (background PAH-specific therapy at baseline and region). […]
# [1] = 10 mg o.d. oral, DB period, FAS with imputation, n=43
# [2] = 10 mg o.d., FAS with imputation, n=43
# [3] = Week 12 vs baseline, macitentan group
# [4] = change to Week 12, ANCOVA, FAS, listed as Macitentan
# [5] = patients receiving macitentan, FAS no imputation
smiles,measurement,setting,value
"CCCNS(=O)(=O)Nc1ncnc(OCCOc2ncc(Br)cn2)c1-c1ccc(Br)cc1 [macitentan, N-[5-(4-Bromophenyl)-6-[2-[(5-bromo-2-pyrimidinyl)oxy]ethoxy]-4-pyrimidinyl]-N′-propylsulfamide]","PVR at Week 12, mean",[1],350.3 dyn.sec/cm^5
same,"PVR at Week 12, median",[1],328.6 dyn.sec/cm^5
same,Mean (±SD) decrease in PVR from baseline to Week 12,"10 mg o.d., FAS",202.1 (±123.56) dyn·sec/cm^5
same,"Change from baseline to Week 12 in PVR, mean",[2],−202.1 dyn.sec/cm^5
same,"Change from baseline to Week 12 in PVR, median",[2],−179.9 dyn.sec/cm^5
same,"Ratio of Week 12 to baseline PVR, geometric mean (95% CLs)",[2],"0.63 (0.58, 0.67)"
same,"Ratio of baseline PVR at Week 12, median",[2],0.60
same,"Ratio of Week 12 to baseline PVR, geometric mean (95% CLs)","10 mg o.d., FAS with imputation, n=43, listed as Macitentan",0.63
same,"LS mean difference Macitentan 10 mg-Placebo, log(ratio of baseline PVR at Week 12)","ANCOVA, FAS",−0.43
same,LS mean of log(ratio of baseline PVR at Week 12),"ANCOVA, FAS, macitentan group",−0.41
same,Model-adjusted geometric mean of ratio of baseline PVR at Week 12,"ANCOVA, FAS, macitentan group",0.67
same,"SVO2 at Week 12, mean","FAS with imputation, n=41",70.3%
same,"SVO2 change from baseline to Week 12, mean","FAS with imputation, n=41",1.1%
same,"mRAP at Week 12, mean","FAS with imputation, n=42",9.0 mmHg
same,"mRAP change from baseline to Week 12, mean","FAS with imputation, n=42",1.6 mmHg
same,"Cardiac index at Week 12, mean","FAS with imputation, n=43",3.7 L/min/m^2
same,"Cardiac index change from baseline to Week 12, mean","FAS with imputation, n=43",0.6 L/min/m^2
same,"TPR at Week 12, mean","FAS with imputation, n=43",489.4 dyn · sec/cm^5
same,"TPR change from baseline to Week 12, mean","FAS with imputation, n=43",−199.8 dyn · sec/cm^5
same,"mPAP Change from baseline to Week 12, Mean","FAS with imputation, n=43",−6.4 mmHg
same,"mPAP at Week 12, mean","FAS with imputation, n=43",40.0 mmHg
same,Effect on PVR across demographic and baseline disease subgroups,"FAS, subgroup analyses, Week 12","consistent with the overall treatment effect, with no indication of heterogeneity"
same,"Geometric mean ratio of macitentan versus placebo (95% CLs), PVR, slope imputation","Week 12, ANCOVA, FAS N=85","0.65 (0.59, 0.72),"
same,"Model-adjusted geometric mean ratio of PVR (macitentan over placebo), primary analysis","Week 12, ANCOVA, FAS N=85","0.65 (0.59, 0.72), p < 0.0001"
same,"Difference in LS means macitentan-placebo, change from baseline in PVR (no log-transformation)","Week 12, ANCOVA, FAS N=85 (Table 10)",−180.71 dyn.sec/cm^5
same,"Model-adjusted geometric mean ratio of PVR (macitentan over placebo), primary analysis","Week 12, ANCOVA, FAS N=85, listed as Macitentan",0.65
same,Treatment effect: geometric mean ratio of PVR ratio (macitentan vs placebo),"Week 12, FAS with imputation, descriptive (Table 8)",0.64
same,"LS Mean difference (macitentan-placebo), ANCOVA (Absolute Change) of PVR","Week 12, N=85 (Table 12)",−180.71 meters
same,Reduction in PVR vs placebo,"Week 12, from adjusted geometric mean ratio",35%
same,Patients with an increase in PVR,[3],1 patient
same,Patients with no change in PVR,[3],1 patient
same,SVO2: difference in LS means macitentan-placebo,"change to Week 12, ANCOVA, FAS",No clinically significant effect; also recorded: No clinically relevant effect
same,mRAP: difference in LS means macitentan-placebo,"change to Week 12, ANCOVA, FAS",No clinically significant effect; also recorded: No clinically relevant effect
same,Cardiac index: difference in LS means macitentan-placebo,[4],0.52 L/min/m^2
same,SVO2: difference in LS means macitentan-placebo,[4],0.03%
same,TPR: difference in LS means macitentan-placebo,[4],−171.48 dyn · sec/cm^5
same,mPAP: difference in LS means macitentan-placebo,[4],−5.99 mmHg
same,mRAP: difference in LS means macitentan-placebo,[4],1.67 mmHg
same,PAWP/LVEDP treatment difference based on change from baseline to Week 12,macitentan vs placebo,2.4 mmHg
same,Mean PAWP/LVEDP (SD) at Week 12,[5],11.4 (4.2) mmHg
same,PAWP/LVEDP mean (SD) change from baseline at Week 12,[5],2.1 (3.7) mmHg
